SMILES | logP
CN(C)c1ccc(C(=O)O)cc1 | 1.28
CCCOc1ccc(C(=O)O)cc1 | 3.09
[N-]=[N+]=Nc1ccc(C(=O)O)cc1 | 2.54
CCCc1ccc(C(=O)O)cc1 | 3.42
O=Cc1ccc(C(=O)O)cc1 | 1.76
NCc1ccc(C(=O)O)cc1 | 1.03
O=C(O)c1cc(Cl)ccc1Cl | 2.82
CC(=O)Nc1cccc(C(=O)O)c1 | 1.32
CCc1ccc(C(=O)O)cc1 | 2.89
O=C(O)c1ccc(Cl)c(Cl)c1 | 3.25
